Results from US7173063B1, “Topoisomerase poisons for the treatment of proliferative disorders” (Fred Hutchinson Cancer Research Center, priority 2000, dated 2007).

Tests used:
[1] = tested on: chicken pre-B cell line DT40; assay: Thymidine incorporation toxicity assay in isogenic DT40 cells with or without KU70, RAD52, RAD54; type: cell-based; settings: for effect of loss of homologous recombination (RAD52 or RAD54) on toxicity: DT40 with or without RAD52 or RAD54
Description: (§1) Cell lines were grown at 37° C. in an atmosphere of 5% CO2. The chicken pre-B cell line DT40 and its derivatives (Bezzubova, et al., Cell 89: 185–93 (1997), Takata, et al., EMBO Journal 17: 5497–508 (1998), Yamaguchi-Iwai, et al., Molecular & Cellular Biology 18: 6430–5 (1998)) were grown in RPMI containing 10% fetal calf serum and 1% chicken serum. The remaining cell lines were grown in DMEM with 10% fetal calf serum.
(§2) Toxicity assays in mammalian cell lines were performed using tritiated thymidine incorporation as a measure of the number of viable cells. […] Drug toxicity was measured as follows:
(§3) Cells were plated at a density of 500 cells per well in opaque 96 well plates (Packard) in a volume of 135 μL per well of the appropriate media. The plates were incubated overnight to allow cell adherence. Seven two-fold dilutions of the test compounds were added in a volume of 15 μL per well in triplicate, and 15 μL of media containing an appropriate concentration of DMSO was added to control wells in triplicate. Plates were incubated at 37° C. for 96 hours. The media was then replaced with 100 μL per well of the appropriate media containing 2 μCi/mL of (methyl-^3H) thymidine (Amersham Pharmacia Biotech), then plates were incubated for a further 24 hours at 37° C. Cells were washed three times with PBS, then 100 μL per well of scintillant was added (Microscint 20, Packard), and sealed plates were counted in a microplate reader (Packard Topcount). For suspension chicken cells, (methyl-^3H) thymidine was added directly to the drug-containing media at a concentration of 20 μCi/mL (comprising one tenth of the media volume) and incubated overnight. The suspension cells were transferred to a UniFilter GF/C plate (Packard) and washed with PBS in a plate washer (Packard). After drying, 25 μL per well of scintillant (Microscint 20, Packard) was added, and sealed plates were counted. Toxicity is expressed as a percentage of the control counts. For experiments involving shorter exposures to compounds, cells were grown in the presence of compound for the appropriate time, then the media was replaced with fresh drug-free media, and incubation continued for the remainder of 96 hours, followed by the normal tritiated thymidine uptake and washing protocol.
In the case of Topo II poisons, the drug/enzyme complex directly produces a DSB, which could occur in all phases of the cell cycle and can apparently be repaired by either DSB repair pathway. Topo I poisons, however, create a single strand break that is converted to a DSB by passage of a replication fork during ongoing DNA synthesis (D'Arpa, et al., Cancer Research 50: 6919–24 (1990), Hsiang, et al., Cancer Research 49: 5077–82 (1989), Holm, et al., Cancer Research 49: 6365–8 (1989)). It has been proposed that DSB's created in this context can only be repaired by homologous recombination, additionally requiring proteins involved in sister chromatid cohesion (Castano, et al., Genes & Development 10: 2564–76 (1996), Castano, et al., Nucleic Acids Research 24: 2404–10 (1996), Walowsky, et al., Journal of Biological Chemistry 274: 7302–8 (1999)).

ACHN, SW620, A549, MDA-N = assay: Thymidine incorporation toxicity assay in four cancer derived cell lines; type: cell-based, human; settings: for correlation between MDR1 activity and toxicity/sensitivity: A549, SW620, ACHN (MDR1 10, 31, 120); for cell line against which most effective: four tumor derived cell lines
Description: as §1, §2, §3
A common mechanism of tumor resistance to chemotherapeutic agents is overexpression of the drug efflux protein MDR1 (Kane, et al., Advances in Drug Research 28: 182–252 (1996), Nooter, et al., Leukemia Research 18: 233–43 (1994)). MDR1 is overexpressed in many tumor derived cell lines (for instance see http://dtp.nci.nih.gov/), and its overexpression inversely correlates with sensitivity to certain compounds (Kane, et al., Advances in Drug Research 28: 182–252 (1996)).

purified Topo I = biological target: T1, purified Topo I (Homo sapiens, UniProt P11387); assay: In vitro assay for DNA strand-break formation in the presence of purified Topo I; type: biochemical
T1 sequence (P11387 1-765): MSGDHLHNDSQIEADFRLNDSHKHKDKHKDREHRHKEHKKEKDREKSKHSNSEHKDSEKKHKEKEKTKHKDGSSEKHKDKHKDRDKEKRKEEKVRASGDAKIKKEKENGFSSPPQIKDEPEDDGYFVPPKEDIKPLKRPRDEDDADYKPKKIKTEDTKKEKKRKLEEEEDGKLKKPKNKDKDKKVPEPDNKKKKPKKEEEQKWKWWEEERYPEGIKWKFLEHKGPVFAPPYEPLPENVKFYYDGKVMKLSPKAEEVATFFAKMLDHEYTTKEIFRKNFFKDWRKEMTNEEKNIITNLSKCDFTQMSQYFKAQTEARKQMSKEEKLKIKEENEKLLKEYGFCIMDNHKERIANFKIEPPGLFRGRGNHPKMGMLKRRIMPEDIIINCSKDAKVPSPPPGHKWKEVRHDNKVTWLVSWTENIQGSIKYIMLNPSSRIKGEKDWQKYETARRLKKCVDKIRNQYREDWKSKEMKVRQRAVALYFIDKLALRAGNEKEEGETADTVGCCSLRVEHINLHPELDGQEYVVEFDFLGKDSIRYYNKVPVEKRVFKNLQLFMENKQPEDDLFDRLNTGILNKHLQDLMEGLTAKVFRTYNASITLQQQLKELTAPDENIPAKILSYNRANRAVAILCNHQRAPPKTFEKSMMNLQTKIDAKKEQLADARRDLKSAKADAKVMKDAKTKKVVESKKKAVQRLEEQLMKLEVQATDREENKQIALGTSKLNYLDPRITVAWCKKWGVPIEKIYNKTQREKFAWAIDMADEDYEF

Rat1a fibroblasts [2] = assay: Effect of exposure time on toxicity in Rat1a fibroblasts; type: cell-based, rat; settings: for toxicity with a two hour exposure: additional experiments; for toxicity of four hour versus six hour exposure: total incubation 96 hours
Description: as §3

[3] = tested on: DSB repair defective rad50 and rad52 strains of Saccharomyces cerevisiae; type: cell-based; settings: relative growth (OD660) vs solvent control
Text: The strains are derived from the A364a genetic background, with the exception of BY4705, which is derived from the S288C background. Gene disruptions were generated by PCR fragment directed replacement (Baudin, et al., Nucleic Acids Research 21: 3329–30 (1993), Guldener, et al., Nucleic Acids Research 24: 2519–24 (1996)). Yeast overexpressing topoisomerase II was constructed by a PCR fragment directed promoter replacement of the topoisomerase II promoter with the yeast GPD promoter flanked upstream by the URA3 marker. All strains (except BY4705) bear the pleitropic drug sensitizing mutations erg6, pdr1, and pdr3 (Balzi, et al., Journal of Bioenergetics & Biomembranes 27: 71–6 (1995), Delaveau, et al, Molecular & General Genetics 244: 501–11 (1994), Gaber, et al., Molecular & Cellular Biology 9: 3447–56 (1989), Saunders, et al., Canadian Journal of Genetics & Cytology, 24: 493–503 (1982). Subik, et al, Current Genetics 10: 665–70 (1986)). The haploid yeast strain BY4705 (Brachmann, et al., Yeast 14: 115–32 (1998)) was used in the experiments described in FIG. 5. Plasmids expressing yeast or human topoisomerase I genes under the GAL promoter (Knab, et al., Journal of Biological Chemistry 268: 22322–30 (1993). Knab, et al., Journal of Biological Chemistry 270: 6141–8 (1995)) were transformed into BY4705 using standard procedures.
Yeast toxicity assays were performed essentially as follows: Exponentially growing cultures of the appropriate strains were diluted in synthetic complete media to a concentration of 7.4×10^4 cells/mL, and aliquots (135 μL) were transferred to each well of clear flat-bottomed 96 well plates. Compounds were added in duplicate or triplicate as 15 μL of the appropriate dilution in 5% DMSO. A 15 μL portion of 5% DMSO was added to control wells. […] Cell growth (OD660) in treated wells was plotted as a percentage of the growth in at least four averaged solvent control wells for the same strain. Camptothecin sodium salt (camptothecin Na) was the agent used in all yeast assays as standard.

Rat1a fibroblasts [4] = assay: Effect of co-treatment with hydroxyurea (HU) on toxicity in Rat1a fibroblasts; type: cell-based, rat; settings: six-hour exposure; 0, 0.25, 0.5 or 1 mM HU
Description: FIG. 6 illustrates the effect of exposure time and hydroxyurea on the toxicity of compound Ia and compound IIa. […] Rat1a fibroblasts were exposed to compound during growth for either four or six hours, the media was changed, then cells were grown for an appropriate period such that total incubation time was 96 hours, and processed as described in the Example below. […] The bar graph insets for each graph show growth inhibition by HU alone.
as §3
A six-hour exposure was used to test whether the toxicity of the same set of compounds is dependent on ongoing DNA synthesis. […] Thus, in contrast to camptothecin and topotecan, compounds Ia and IIa show no marked time dependency for toxicity (FIG. 6A) and are not inhibited by HU (FIG. 6B), indicating critical mechanistic differences between these compounds and camptothecin.

SMILES	effect of loss of homologous recombination (RAD52 or RAD54) on toxicity [1]	correlation between MDR1 activity and toxicity/sensitivity (ACHN, SW620, A549, MDA-N)	cell line against which most effective (ACHN, SW620, A549, MDA-N)	toxicity with a two hour exposure (Rat1a fibroblasts [2])	toxicity of four hour versus six hour exposure (Rat1a fibroblasts [2])	further results
CC[C@@]1(O)C(=O)OCc2c1cc1n(c2=O)Cc2cc3ccccc3nc2-1 [camptothecin, Camptothecin, reference compound]	minor effect	No correlation	most effective against the colon carcinoma derived cell line SW620	no toxicity		effect of loss of KU70 on toxicity ([1]; DT40 with or without KU70): unaffected by KU70 expression; camptothecin concentration required in the in vitro assay relative to cell-based assays (purified Topo I): 100 fold; strand-break induction (purified Topo I): does induce strand-break formation; effectiveness of 96 hour exposure relative to four hour exposure (Rat1a fibroblasts [2]): ≤ 100 fold
COc1cc([C@@H]2c3cc4c(cc3[C@@H](O[C@@H]3O[C@@H]5CO[C@@H](C)O[C@H]5[C@H](O)[C@H]3O)[C@H]3COC(=O)[C@H]23)OCO4)cc(OC)c1O [etoposide, reference compound]	no effect			nearly full toxicity	little difference in toxicity	
O=C1c2c(O)ccc(O)c2C(=O)c2c(NCCNCCO)ccc(NCCNCCO)c21 [mitoxantrone]						profile of selective toxicity: toxic to rad50 and rad52 strains, not toxic in rad14 or rad18 strains [3]: Agents with this profile include
CC(=O)O[C@H]1C(=O)[C@@]2(C)[C@H]([C@H](OC(=O)c3ccccc3)[C@]3(O)C[C@H](OC(=O)[C@H](O)[C@@H](NC(=O)c4ccccc4)c4ccccc4)C(C)=C1C3(C)C)[C@]1(OC(C)=O)CO[C@@H]1C[C@@H]2O [taxol, reference compound]		clear inverse correlation				
CC[C@@]1(O)C(=O)OCc2c1cc1n(c2=O)Cc2cc3c(CN(C)C)c(O)ccc3nc2-1 [topotecan, Topotecan, reference compound]		No correlation	most effective against the colon carcinoma derived cell line SW620		six-hour exposure being much more effective than a four-hour exposure	inhibition of toxicity by co-treatment with HU (Rat1a fibroblasts [4]): suppresses the toxicity
